From patent US9107919B2, “Pharmaceutical compositions comprising imidazoquinolin(amines) and derivatives thereof suitable for local administration” (priority 2009, dated 2015)
≈ marks a conversion by molar mass, not a printed value.

Columns and labels:
[1] = Imiquimod solubility in different solvent systems; type: physicochemical
Method: The dispersions have been centrifuged at 10,000 rpm for 10 minutes and the liquid phases collected and stored at room temperature until analysed. The imiquimod concentration in these solutions was spectrophotometrically (λ=319 nm) determined after appropriated dilution.

[2] = Preliminary solubility tests of imiquimod (visual inspection); type: physicochemical
Method: 48 mg of imiquimod was weighed and added of hydrochloric acid solutions at different concentrations: in particular 48.2 mg imiquimod were treated with 8 ml hydrochloric acid 0.1 N, 48.6 mg imiquimod with 9 ml hydrochloric acid 0.2 N and 48.4 mg imiquimod with 8 ml hydrochloric acid 2 N. After vortexing for 5 minutes, the samples were visually inspected.
A weighed amount of drug (48.2 mg) was dissolved under agitation in 2 ml glacial acetic acid. After complete solubilisation a weighed aliquot of imiquimod (150 mg) was added to this solution in order to visually evaluate the maximum concentration of dissolved drug.
The solubility of imiquimod at different pH values was determined. Two different procedures were used. The drug was dispersed in the buffer (without acetic acid as co-solvent). 72 mg imiquimod were dispersed with 10 ml citrate buffer, 155 mg imiquimod in 10 ml phosphate buffer and 192 mg in 10 ml acetate buffer. After vortexing for 5 minutes, each sample was visually inspected.
A visual inspection of the systems was carried out.

[3] = Solubility of imiquimod in short-chain acids, cyclodextrin and surfactants (spectrophotometry); type: physicochemical
Method: Some inorganic and organic acids were considered as potential solubilizers of the drug. 100 mg imiquimod were dissolved in 10 ml of phosphoric acid 0.1 M, succinic acid 0.1 M, citric acid 0.1 M, acetic acid 0.01 M, 0.05 M, 0.1 M and lactic acid 0.01 M, 0.05 M, 0.088 M, and 0.1 M. These systems, after filtration, were spectrophotometrically analyzed for imiquimod and their pH was measured.
Exactly weighed amounts of imiquimod (200 mg) and hydroxypropyl-β-cyclodextrin (HP-β-CD) (4000 mg) were dissolved in 10 ml of: • water • water at pH 5.0 (corrected with HCl) • water at pH 3.0 (corrected with HCl) • lactic acid solution (0.1 M)
After shaking for 24 hours and filtration (0.22 μm Millipore membrane filter) the solubilised imiquimod was spectrophotometrically determined. The solution pH was also measured.
Imiquimod (200 mg) was weighed and mixed with different amounts of surfactants (Tween 20, Tween 80, Cremophor EL or Pluronic F-68) in order to prepare formulations containing 0.5, 2.5 and 5% of surface active agent. Each mixture was added to 10 ml of lactic acid (0.1 M), gently shaken for 24 hours, filtered and analyzed by spectrophotometry and submitted to pH measurement.
The imiquimod present in solution in compositions prepared with different acids and surfactants is spectrophotometrically determined and is shown in Table 5 together with the pH value.

[4] = cited from earlier work
[5] = dissolved in glacial acetic acid, then diluted with buffers
[6] = HP-β-CD 40.0% (water at pH 3.0 corrected with HCl)
[7] = HP-β-CD 40.0% (water at pH 5.0 corrected with HCl)
[8] = lactic acid 0.100 M + Cremophor EL 0.5%
[9] = lactic acid 0.100 M + Cremophor EL 2.5%
[10] = lactic acid 0.100 M + Cremophor EL 5.0%
[11] = lactic acid 0.100 M + HP-β-CD 40.0%
[12] = lactic acid 0.100 M + Pluronic F68 0.5%
[13] = lactic acid 0.100 M + Pluronic F68 2.5%
[14] = lactic acid 0.100 M + Pluronic F68 5.0%
[15] = lactic acid 0.100 M + Tween 20 0.5%
[16] = lactic acid 0.100 M + Tween 20 2.5%
[17] = lactic acid 0.100 M + Tween 20 5.0%
[18] = lactic acid 0.100 M + Tween 80 0.5%
[19] = lactic acid 0.100 M + Tween 80 2.5%
[20] = lactic acid 0.100 M + Tween 80 5.0%

## CC(C)Cn1cnc2c(N)nc3ccccc3c21 [imiquimod, 1-isobutyl-1H-imidazo[4,5-c]quinolin-4-amine]
[1]; 5% CD LA 01
  pH: 3.90
[1]; 5% CD LA 01 (5% HP-β-CD in 0.1 M lactic acid)
  imiquimod solubility: 1.23 % w/w
[1]; 5% CD-16% PF127 LA 01
  imiquimod solubility: 1.15 % w/w
  pH: 4.05
[1]; 5% PF127 LA 01
  pH: 3.92
[1]; 5% PF127 LA 01 (5% Poloxamer 407 in 0.1 M lactic acid)
  imiquimod solubility: 1.19 % w/w
[1]; 15% CD LA 01
  pH: 4.03
[1]; 15% CD LA 01 (15% HP-β-CD in 0.1 M lactic acid)
  imiquimod solubility: 1.37 % w/w
[1]; 15% CD-16% PF127 LA 01
  imiquimod solubility: 1.22 % w/w
  pH: 4.25
[1]; 16% PF127 LA 01
  imiquimod solubility: 1.10 % w/w
  pH: 3.99
[1]; 20% PF127 LA 01
  imiquimod solubility: 1.04 % w/w
  pH: 4.16
[1]; DMSO
  imiquimod solubility: 0.09 % w/w
[1]; Glutamic acid 0.072M
  imiquimod solubility: 0.54 % w/w
  pH: 3.95
[1]; Glycolic acid 0.1M
  imiquimod solubility: 0.68 % w/w
  pH: 3.82
[1]; LA 0.025M
  pH: 3.93
[1]; LA 0.025M, 25° C., 24 h
  imiquimod solubility: 0.33 % w/w
[1]; LA 0.05M
  pH: 3.81
[1]; LA 0.05M, 25° C., 24 h
  imiquimod solubility: 0.58 % w/w
[1]; LA 0.1M
  pH: 3.73
[1]; LA 0.1M, 25° C., 24 h
  imiquimod solubility: 1.18 % w/w
[1]; LA 0.2M
  pH: 3.52
[1]; LA 0.2M, 25° C., 24 h
  imiquimod solubility: 2.20 % w/w
[1]; N-Methyl-pyrrolidone
  imiquimod solubility: 0.16 % w/w
[1]; PEG 400
  imiquimod solubility: 0.03 % w/w
[1]; Tartaric acid 0.1M
  imiquimod solubility: 0.01 % w/w
  pH: 2.48
[2]; citrate, phosphate, acetate buffer, without acetic acid
  solubility in buffers (visual): slightly soluble
[2]; [5]
  appearance after dilution: clear, transparent solutions
  pH of the systems: lower than 3.6
[2]; glacial (100%) acetic acid, organic solvent or mixture, thermodynamic from solid, room temperature
  solubility: 100 mg/mL (≈ 416 mM)
[2]; hydrochloric acid 0.1 N, 0.2 N and 2 N
  solubility (visual): slightly soluble
[2]; room temperature, visual
  solubility in glacial (100%) acetic acid: 10 % (w/v)
[3]; [6]
  imiquimod in solution: 0.655 % w/v
  pH: 3.05
[3]; [7]
  imiquimod in solution: 0.143 % w/v
  pH: 5.17
[3]; HP-β-CD 40.0%, no acid (water)
  imiquimod in solution: 0.004 % w/v
  pH: 7.09
[3]; acetic acid 0.010 M
  imiquimod in solution: 0.070 % w/v
  pH: 4.37
[3]; acetic acid 0.050 M
  imiquimod in solution: 0.220 % w/v
  pH: 4.08
[3]; acetic acid 0.100 M
  imiquimod in solution: 0.430 % w/v
  pH: 3.97
[3]; citric acid 0.100 M
  imiquimod in solution: 0.010 % w/v
  pH: 2.10
[3]; lactic acid 0.010 M
  imiquimod in solution: 0.130 % w/v
  pH: 4.20
[3]; lactic acid 0.050 M
  imiquimod in solution: 0.530 % w/v
  pH: 3.90
[3]; lactic acid 0.088 M
  imiquimod in solution: 0.840 % w/v
  pH: 3.71
[3]; lactic acid 0.100 M
  imiquimod in solution: 0.980 % w/v
  pH: 3.61
[3]; [8]
  imiquimod in solution: 0.881 % w/v
  pH: 3.90
[3]; [9]
  imiquimod in solution: 0.989 % w/v
  pH: 3.87
[3]; [10]
  imiquimod in solution: 0.969 % w/v
  pH: 3.88
[3]; [11]
  imiquimod in solution: 1.141 % w/v
  pH: 4.46
[3]; [12]
  imiquimod in solution: 1.048 % w/v
  pH: 3.85
[3]; [13]
  imiquimod in solution: 1.088 % w/v
  pH: 3.87
[3]; [14]
  imiquimod in solution: 0.972 % w/v
  pH: 3.89
[3]; [15]
  imiquimod in solution: 0.945 % w/v
  pH: 3.88
[3]; [16]
  imiquimod in solution: 1.004 % w/v
  pH: 3.86
[3]; [17]
  imiquimod in solution: 1.001 % w/v
  pH: 3.89
[3]; [18]
  imiquimod in solution: 0.997 % w/v
  pH: 3.83
[3]; [19]
  imiquimod in solution: 1.009 % w/v
  pH: 3.82
[3]; [20]
  imiquimod in solution: 0.872 % w/v
  pH: 3.82
[3]; phosphoric acid 0.100 M
  imiquimod in solution: 0.159 % w/v
  pH: 1.80
[3]; succinic acid 0.100 M
  imiquimod in solution: 0.079 % w/v
  pH: 2.94
[4]
  pKa: about 4
